The target in test [1] is T1, Fibrobacter succinogenes S85 acetylxylan esterase FSUAxe6B (Axe6B, FSU2267), wild-type (WT), SEQ ID NO: 31 (Fibrobacter succinogenes, UniProt C9RS24).
T1 sequence (C9RS24 30-552): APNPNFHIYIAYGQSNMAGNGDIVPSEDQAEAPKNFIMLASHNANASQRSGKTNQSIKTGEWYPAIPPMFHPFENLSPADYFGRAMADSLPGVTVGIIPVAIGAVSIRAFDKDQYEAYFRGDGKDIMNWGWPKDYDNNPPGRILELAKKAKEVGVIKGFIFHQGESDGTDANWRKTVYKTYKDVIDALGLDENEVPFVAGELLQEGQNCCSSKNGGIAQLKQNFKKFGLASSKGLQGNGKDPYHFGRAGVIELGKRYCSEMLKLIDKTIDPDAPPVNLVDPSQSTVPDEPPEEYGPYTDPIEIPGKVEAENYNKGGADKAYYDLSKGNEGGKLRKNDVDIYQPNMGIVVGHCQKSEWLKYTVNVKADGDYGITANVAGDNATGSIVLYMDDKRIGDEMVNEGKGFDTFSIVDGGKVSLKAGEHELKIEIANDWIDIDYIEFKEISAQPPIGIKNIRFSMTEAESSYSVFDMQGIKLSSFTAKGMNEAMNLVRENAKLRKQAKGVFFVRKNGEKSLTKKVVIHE
The test is described as follows: Steady state kinetic analysis of acetylxylan esterase activity, FSUAxe6B wild-type (WT). The format is biochemical. The note with it: tetra-acetyl-xylopyranoside as substrate, 37° C. The protocol: Assays were carried out at 37° C. Five microliters of 1 μM enzyme and 20 μl of R2 enzyme solution (containing acetate kinase, pyruvate kinase, and […] in 100 mM Tris-HCl, pH 7.4, 3 mM MgCl2) were thoroughly mixed. The tetra-acetyl-xylopyranoside was prepared in […] of R1 solution (NADH, ATP, phospho-enol-pyruvate, and pyruvate). The concentrations of the ingredients R1 and R2 solutions were pre-determined by the manufacturer (Megazyme). Both solutions were incubated separately at 37° C. for 3 min to allow equilibration, and then mixed to start the reaction. Initial rates were plotted against the tetra-acetyl-xylopyranoside concentrations, and the kinetic parameters were determined by Michaelis-Menten equation utilizing Graph Pad Prism v5.01.
Enzyme assays and steady state kinetics—Acetylxylan esterase activity was assayed using tetra-acetyl-xylopyranoside (Toronto Research Chemicals Inc., Ontario, Canada) for all proteins in this study, and the released of acetic acid was measured using an acetic acid detection kit (Megazyme, Bray, Ireland) following the manufacturer's instructions. The reduction of NADH was monitored continuously at an absorbance of 340 nm using Synergy 2 Microplate reader (BioTek, Winooski, Vt.) using the path-length correction feature. All assays were carried out at 37° C. […]

In test [2] the target is T2, Fibrobacter succinogenes S85 FSUAxe6B truncational mutant TM1 (CE6+CBM6) (Fibrobacter succinogenes, UniProt C9RS24).
T2 construct: primers F1/R2, modified pET-28a, E. coli BL21(DE3), purified
T2 sequence (C9RS24 30-479 limits assumed): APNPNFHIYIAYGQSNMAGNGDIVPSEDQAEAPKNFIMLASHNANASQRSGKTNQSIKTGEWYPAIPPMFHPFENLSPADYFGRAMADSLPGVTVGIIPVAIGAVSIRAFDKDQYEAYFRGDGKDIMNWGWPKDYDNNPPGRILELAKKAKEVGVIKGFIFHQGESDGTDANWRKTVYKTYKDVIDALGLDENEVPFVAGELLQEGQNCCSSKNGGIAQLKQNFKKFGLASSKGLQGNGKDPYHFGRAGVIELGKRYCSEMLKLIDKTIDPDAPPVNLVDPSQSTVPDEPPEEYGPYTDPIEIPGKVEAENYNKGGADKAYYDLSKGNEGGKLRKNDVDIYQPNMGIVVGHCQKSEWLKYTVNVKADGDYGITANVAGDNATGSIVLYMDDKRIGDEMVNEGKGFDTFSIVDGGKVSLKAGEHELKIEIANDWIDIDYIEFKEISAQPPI
The test is described as follows: Steady state kinetic analysis, truncational mutant TM1. It is filed as biochemical. The note with it: tetra-acetyl-xylopyranoside as substrate, 37° C. The text has this:
(§1) To delineate and investigate the modules present in FSUAxe6B for functional role assignments, a gene truncation strategy was adopted. To create the truncated proteins, the glycines in loop regions were selected as the terminal amino acids of our constructs. The construct TM1 (CE6+CBM6) was designed to investigate the contribution of FPd-1 to the wild-type (WT) protein in terms of its catalytic (esterase) and carbohydrate binding activities. Likewise, TM2 (CE6) was constructed for identifying the role of the putative CBM6 on the two potential functions of the protein. […]
(§2) Assays were carried out at 37° C. […] The concentrations of the ingredients R1 and R2 solutions were pre-determined by the manufacturer (Megazyme). […] Initial rates were plotted against the tetra-acetyl-xylopyranoside concentrations, and the kinetic parameters were determined by Michaelis-Menten equation utilizing Graph Pad Prism v5.01.
(§3) Enzyme assays and steady state kinetics—Acetylxylan esterase activity was assayed using tetra-acetyl-xylopyranoside (Toronto Research Chemicals Inc., Ontario, Canada) for all proteins in this study, and the released of acetic acid was measured using an acetic acid detection kit (Megazyme, Bray, Ireland) following the manufacturer's instructions. […] The concentrations of the ingredients R1 and R2 solutions were pre-determined by the manufacturer (Megazyme). […]

Test [3] addresses T3, Fibrobacter succinogenes S85 FSUAxe6B truncational mutant TM2 (CE6) (Fibrobacter succinogenes, UniProt C9RS24).
T3 construct: primers F1/R3, modified pET-28a, E. coli BL21(DE3), purified
T3 sequence (C9RS24 30-297): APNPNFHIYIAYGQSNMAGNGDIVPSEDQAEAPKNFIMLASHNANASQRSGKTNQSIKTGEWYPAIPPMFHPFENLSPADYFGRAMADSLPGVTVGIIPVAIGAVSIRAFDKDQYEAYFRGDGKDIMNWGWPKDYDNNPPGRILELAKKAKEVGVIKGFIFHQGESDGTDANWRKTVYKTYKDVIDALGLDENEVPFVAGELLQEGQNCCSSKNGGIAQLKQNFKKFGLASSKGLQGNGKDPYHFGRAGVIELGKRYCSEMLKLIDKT
The test is described as follows: Steady state kinetic analysis, truncational mutant TM2. The format is biochemical. The note with it: tetra-acetyl-xylopyranoside as substrate, 37° C., means ± standard errors.
From the text: as §1, §2, §3

Test [4] has as its target T4, Fibrobacter succinogenes S85 FSUAxe6B variant E194N (Fibrobacter succinogenes, UniProt C9RS24, E194N).
T4 sequence (C9RS24 30-552 E194N): T1 sequence (C9RS24 30-552) with E165N
The test is described as follows: Steady state kinetic analysis, E194N mutant. The format is biochemical. The note with it: tetra-acetyl-xylopyranoside as substrate, 37° C., 10 μM E194N protein. The protocol:
(§4) Site-directed mutagenesis—Site-directed mutagenesis was carried out using the QuikChange Multi Site-Directed Mutagenesis Kit (Stratagene), according to the manufacturer's instructions.
(§5) Enzyme assays and steady state kinetics—Acetylxylan esterase activity was assayed using tetra-acetyl-xylopyranoside (Toronto Research Chemicals Inc., Ontario, Canada) for all proteins in this study, and the released of acetic acid was measured using an acetic acid detection kit (Megazyme, Bray, Ireland) following the manufacturer's instructions. The reduction of NADH was monitored continuously at an absorbance of 340 nm using Synergy 2 Microplate reader (BioTek, Winooski, Vt.) using the path-length correction feature. All assays were carried out at 37° C. […] The concentrations of the ingredients R1 and R2 solutions were pre-determined by the manufacturer (Megazyme). […] For active-site mutants with lower activity, the kinetic parameters were determined at a concentration of 10 μM for E194N protein and 2 μM for E194A, D270N, and D270A proteins, respectively. Initial rates were plotted against the tetra-acetyl-xylopyranoside concentrations, and the kinetic parameters were determined by Michaelis-Menten equation utilizing Graph Pad Prism v5.01.

In test [5] the target is T5, Fibrobacter succinogenes S85 FSUAxe6B variant E194A (Fibrobacter succinogenes, UniProt C9RS24, E194A).
T5 sequence (C9RS24 30-552 E194A): T1 sequence (C9RS24 30-552) with E165A
The test is described as follows: Steady state kinetic analysis, E194A mutant. The format is biochemical. The note with it: tetra-acetyl-xylopyranoside as substrate, 37° C., 2 μM E194A protein. Here is the method:
as §4, §5

Test [6] concerns the target T6, Fibrobacter succinogenes S85 FSUAxe6B variant D270A (Fibrobacter succinogenes, UniProt C9RS24, D270A).
T6 sequence (C9RS24 30-552 D270A): T1 sequence (C9RS24 30-552) with D241A
The test is described as follows: Steady state kinetic analysis, D270A mutant. It is filed as biochemical. The note with it: tetra-acetyl-xylopyranoside as substrate, 37° C., 2 μM D270A protein. The protocol: as §4, §5

For test [7], the system named is Fibrobacter succinogenes S85 acetylxylan esterase Axe6A. The note with it: from ref. 16; substrate not stated at the place; cited from earlier work.
Test [8] concerns Fibrobacter succinogenes S85 acetylxylan esterase Axe6B. The note with it: comparison with Axe6A; substrate not stated at the place; cited from earlier work.
Test [9] deals with Fibrobacter succinogenes S85 FSUAxe6B truncational mutant TM5 (FPd-1 domain), SEQ ID NO: 2 (Fibrobacter succinogenes, UniProt C9RS24). The test is described as follows: Isothermal titration calorimetric (ITC) analysis of TM5 (FPd-1 domain). The format is binding. The note with it: 25° C., 100 μM protein, 50 mM Na2HPO4—HCl buffer pH 7.0, 100 mM NaCl. Here is the method: Isothermal titration calorimetric analysis was conducted to determine whether the FPd-1 domain can bind to soluble substrates. TM5 was tested for binding with arabinoxylan, xylobiose, and xylopentaose (FIG. 10). If there is binding affinity between two materials, a binding heat that follows a pattern such as that for CaCl2 vs. EDTA in the positive control will be observed.
For isothermal titration calorimetric (ITC) analysis, measurements were performed at 25° C. using a VP-ITC calorimeter (MicroCal, Inc, Northhampton, Mass.) following the manufacturer's recommended procedures. All samples were extensively dialyzed against 50 mM Na2HPO4—HCl buffer (pH 7.0), 100 mM NaCl, and all ligands were dissolved in the same buffer. The protein sample (100 μM) was injected with successive 10-μl aliquots of ligand at 300-s intervals.
For orientation: ITC needs no label: the signal is the heat of the interaction.

Residue numbers refer to the chain shown, from its start. Entries after “also recorded” stand apart in the source; their conditions may differ.

What is called kcat/Km is the turnover number divided by the Michaelis constant. In general, kcat refers to the maximal rate divided by the concentration of active sites. The term Km denotes the concentration of substrate that gives half-maximal velocity. For the compound `CC(=O)O[C@@H]1OC[C@@H](OC(C)=O)[C@H](OC(C)=O)[C@H]1OC(C)=O` [tetra-acetyl-xylopyranoside], the kcat/Km in test [1] was found to be 190000 M⁻¹ s⁻¹; in test [2] it was 170000 M⁻¹ s⁻¹; in test [4] it was 400 M⁻¹ s⁻¹; in test [5], 14000 M⁻¹ s⁻¹; in [6] it was 9000 M⁻¹ s⁻¹. Besides, the turnover number (kcat) worked out at 15 s⁻¹ in test [1] (means ± standard errors); 13 s⁻¹ in test [3]; 2.8 s⁻¹ in [4]; 2.9 s⁻¹ in test [5]; 1.8 s⁻¹ in [6]. Moreover, the Km is 80 µM in test [7] and 60 µM in [8].
Turning to `OC1OC[C@@H](O[C@@H]2OC[C@@H](O[C@@H]3OC[C@@H](O[C@@H]4OC[C@@H](O[C@@H]5OC[C@@H](O)[C@H](O)[C@H]5O)[C@H](O)[C@H]4O)[C@H](O)[C@H]3O)[C@H](O)[C@H]2O)[C@H](O)[C@H]1O` (some centres unmarked) [xylopentaose], in test [9], the ITC binding result was “no significant peaks were observed; also recorded: does not bind”.
For `OC1OC[C@@H](O[C@@H]2OC[C@@H](O)[C@H](O)[C@H]2O)[C@H](O)[C@H]1O` (some centres unmarked) [xylobiose], the ITC binding result in test [9] is reported as “no significant peaks were observed; also recorded: does not bind”.

These data come from patent publication US20110237448A1, “CARBOHYDRATE BINDING MODULE WITH AFFINITY FOR INSOLUBLE XYLAN” (The Board of Trustees of the University of Illinois, priority 2009, published 2011).
